Measurements taken from patent US10703736B2, “Configurational stereoisomer of bromadiolone, composition and rodenticide bait comprising same, and method for controlling target rodent pests” (priority 2015, dated 2020).
“Also recorded” adds a separate entry of the source.

Legend:
[1] = assay type: in vivo, rat; settings: Sprague-Dawley rats, mixture D1,2 56% / D3,4 44%, about 13 mg bromadiolone per kg per os, liver on D1, D3, D7; FIG. 2
Protocol: (§1) About 0.525 g (+0.025 g) of rat liver is weighed out accurately and placed in a 50 mL polypropylene tube. 10 mL of acetone are added and the suspension is homogenized using an Ultra-Turrax® homogenizer/disperser for a time of about 30 seconds. The homogenizer/disperser shaft is rinsed with hot water and then twice with 20 mL of acetone in a polypropylene tube. The homogenate is centrifuged for 5 minutes at a centrifugation speed of 3000 rpm (revolutions per minute). The supernatant is collected and transferred into a test tube. The sample is subjected to evaporation under a stream of nitrogen (N2) at a temperature of 40° C. so as to form a dry extract.
(§2) 1 mL of acetonitrile is added to the tube containing the dry extract so as to dissolve it. The acetonitrile solution is washed twice successively with 1 mL of hexane. […]
On D1 (D+1), D3 (D+3) and D7 (D+7) after tube feeding, four rats anaesthetized beforehand with isoflurane are euthanized, the liver of the euthanized rats is removed, the bromadiolone is then extracted from the liver and the amount of each of the configurational stereoisomers of bromadiolone is assayed by high-pressure liquid chromatography analysis on a chiral column as described above. The area under the peaks of the chromatogram obtained is measured and each configurational stereoisomer of bromadiolone is quantified by comparison with a calibration curve.

[2] = system: male laboratory rats (OFA, Sprague-Dawley 200 g); assay: Anticoagulant power of each configurational stereoisomer: coagulation time (Quick time) of plasma of tube-fed rats; assay type: in vivo; settings: 1.5 mg of enantiomer per kilogram of rat by tube feeding on D0; blood on D1, D3, D7, D14; FIG. 3
Protocol: The following are administered to male laboratory rats (OFA, Sprague-Dawley 200 g) by tube feeding on D0: a composition comprising enantiomer E1 in a proportion of 1.5 mg of said enantiomer E1 per kilogram of rat; or a composition comprising enantiomer E2 in a proportion of 1.5 mg of said enantiomer E2 per kilogram of rat; or a composition comprising enantiomer E3 in a proportion of 1.5 mg of said enantiomer E3 per kilogram of rat; or a composition comprising enantiomer E4 in a proportion of 1.5 mg of said enantiomer E4 per kilogram of rat.
On these rats, blood is collected on D1, D3, D7 and D14 and measurement of the coagulation time (Quick time, expressed in seconds) of the plasma is performed using the “Neoplastine CI Determination of Prothrombin Time” kit (Diagnostica Stago, Asnibre, France) by measurement on a Thrombotimer Option 2 Plus machine (Behnk Electronik, Norderstedt, Germany).

[3] = Hepatic persistence of each configurational stereoisomer in rats tube-fed with a single stereoisomer; assay type: in vivo, rat; settings: liver of rats tube-fed with the single enantiomer at 1.5 mg per kilogram; FIG. 4
Protocol: as §1, §2
The liver of the rats treated above is removed for the purposes of comparative analysis of the anticoagulant power of the configurational stereoisomers of bromadiolone, the bromadiolone is then extracted from the liver and the amount of each of the configurational stereoisomers of bromadiolone is assayed by high-pressure liquid chromatography analysis on a chiral column as described above. The area under the peaks of the chromatogram obtained is measured and each configurational stereoisomer of bromadiolone is quantified by comparison with a calibration curve. […]

O=c1oc2ccccc2c(O)c1C(CC(O)c1ccc(-c2ccc(Br)cc2)cc1)c1ccccc1 (single isomer, unassigned) [diastereoisomer D1,2, 3-[3-(4′-bromo[1,1′-biphenyl]-4-yl)-3-hydroxy-1-phenylpropyl]-4-hydroxy-2H-1-benzopyran-2-one]
persistence in rat liver (hepatic concentration) [1]: the more persistent in the liver of target rodents

O=c1oc2ccccc2c(O)c1C(CC(O)c1ccc(-c2ccc(Br)cc2)cc1)c1ccccc1 (single isomer, unassigned) [enantiomer E1, 3-[3-(4′-bromo[1,1′-biphenyl]-4-yl)-3-hydroxy-1-phenylpropyl]-4-hydroxy-2H-1-benzopyran-2-one]
persistence in rat liver (hepatic concentration) [1]: longest persistence in rat liver of the four enantiomers | anticoagulant effect / anticoagulant activity (coagulation time, Quick time) [2]: sufficient to maintain an anticoagulant effect up to D7; also recorded: higher anticoagulant activity than the anticoagulant activity of said enantiomer E2 and also higher than the anticoagulant activities of said two enantiomers of said diastereoisomer D3,4 | hepatic persistence of each enantiomer [3]: highest hepatic persistence among the bromadiolone enantiomers; also recorded: higher than the persistence in the liver of target rodent pests of said enantiomer E2 and higher than the persistence in the liver of target rodent pests of each enantiomer of said diastereoisomer D3,4
